Assay results as given in paper PMC6334511, “Biochemical characterization of the minimal domains of an iterative eukaryotic polyketide synthase” (The Febs Journal, 2018).

Each compound was assayed on ApPKS KS-AT didomain (assay: alpha-ketoglutarate dehydrogenase coupled NADH fluorescence). Conditions: transacylation to ACP1 (AT site), corrected for ACP1 self-acylation; 50 mM sodium phosphate pH 7.6, 10% glycerol, 1 mM TCEP, 1 mM EDTA; read-out: Km (apparent).
Type: biochemical, Anas platyrhynchos

Row | Km [µM] | SMILES
1 | 7.4 ± 0.97 | CC(C)(COP(=O)(O)OP(=O)(O)OC[C@H]1O[C@@H](n2cnc3c(N)ncnc32)[C@H](O)[C@@H]1OP(=O)(O)O)[C@@H](O)C(=O)NCCC(=O)NCCSC(=O)CC(=O)O [malonyl-CoA]
2 | 8.97 ± 1.53 | CC(=O)SCCNC(=O)CCNC(=O)[C@H](O)C(C)(C)COP(=O)(O)OP(=O)(O)OC[C@H]1O[C@@H](n2cnc3c(N)ncnc32)[C@H](O)[C@@H]1OP(=O)(O)O [acetyl-CoA]
3 | 245 ± 37.7 | CC(C(=O)O)C(=O)SCCNC(=O)CCNC(=O)[C@H](O)C(C)(C)COP(=O)(O)OP(=O)(O)OC[C@H]1O[C@@H](n2cnc3c(N)ncnc32)[C@H](O)[C@@H]1OP(=O)(O)O (stereo partly shown) [methylmalonyl-CoA]
4 | 12.2 ± 3.03 | CCC(=O)SCCNC(=O)CCNC(=O)[C@H](O)C(C)(C)COP(=O)(O)OP(=O)(O)OC[C@H]1O[C@@H](n2cnc3c(N)ncnc32)[C@H](O)[C@@H]1OP(=O)(O)O [propionyl-CoA]
